Experimental data reported in patent US20020115884A1, “Process for producing a hydrogenation product of an aromatic carboxylic acid” (priority 2000, published 2002).

Assay: Solubility in water
Type: physicochemical

Solubility in water (Temperature 150° C.) [g/100 g-water]	Solubility in water (Temperature 200° C.) [g/100 g-water]	Compound
0.03	0.21	O=C(O)c1ccc2cc(C(=O)O)ccc2c1 [2,6-naphthalenedicarboxylic acid]
0.01	0.04	O=C(O)c1ccc(-c2ccc(C(=O)O)cc2)cc1 [4,4′-biphenyldicarboxylic acid]
2.7	24.2	O=C(O)c1cccc(C(=O)O)c1 [Isophthalic acid]
0.25	1.7	O=C(O)c1ccc(C(=O)O)cc1 [Terephthalic acid]
